The experiment has as its target Tyrosine-protein kinase Lck (Bos taurus). The experiment can be described thus: Ability to inhibit protein-tyrosine kinase activity of p56lck (isolated from bovine thymus) in vitro.

38 compounds from BindingDB's records for doi:10.1021/jm00106a047 (Purdue University, 1991) can be followed below.

Bounds are passed on as bounds.

Usually IC50 stands for the point on the concentration scale where inhibition reaches its midpoint.

Regarding `COc1ccc2c(=O)c(C(=O)O)c(-c3ccc(O)cc3)oc2c1`, half-maximal inhibition (IC50) was put at 1030 µM.

On to `COC(=O)c1c(-c2ccc(NC(C)=O)cc2)oc2ccc(OC)cc2c1=O`, for which the IC50 was above 2000 µM.

In turn, `COC(=O)c1c(-c2cc(OC)c(OC)c(OC)c2)oc2ccccc2c1=O` yielded a half-maximal inhibitory concentration (IC50) above 2000 µM.

For the compound `O=C(O)c1c(-c2ccc([N+](=O)[O-])cc2)oc2cc(O)cc(=O)c-2c1O`, the IC50 was above 2000 µM.

Compound `COC(=O)CC(=O)c1ccc(O)c(O)c1O` registered an IC50 above 2000 µM.

`COC(=O)c1c(-c2cc(OC)cc(OC)c2)oc2ccccc2c1=O` showed an IC50 above 2000 µM.

In the case of `COc1ccc2c(=O)c(C(=O)O)c(-c3ccc([N+](=O)[O-])cc3)oc2c1`, the IC50 is above 2000 µM.

The compound `COc1ccc(-c2oc3ccccc3c(=O)c2C(=O)O)cc1` [2-(4-methoxyphenyl)-4-oxo-4H-chromene-3-carboxylic acid] gave an IC50 above 2000 µM.

As for `COC(=O)c1c(-c2ccc(O)cc2)oc2ccc(OC)cc2c1=O`, the half-maximal inhibitory concentration (IC50) was above 2000 µM.

Regarding `COc1cc(-c2cc(=O)c3ccccc3o2)cc(OC)c1O` [3',5'-dimethoxy-4'-hydroxyflavone], the IC50 is 26 µM.

For `Nc1ccc(-c2cc(=O)c3ccc(O)cc3o2)cc1` [7-Hydroxy-flavone, 6], the IC50 came to 138 µM.

Turning to `COC(=O)CC(=O)c1cc(OC)ccc1O`, the IC50 is above 2000 µM.

Turning to `Nc1ccc(-c2cc(=O)c3cc(O)ccc3o2)cc1` [2-(4-aminophenyl)-6-hydroxy-4H-chromen-4-one], inhibition was half-maximal at 1.2 µM (IC50).

`COC(=O)CC(=O)c1ccccc1O` registered an IC50 above 2000 µM.

The compound `COC(=O)c1c(-c2ccc([N+](=O)[O-])cc2)oc2ccccc2c1=O` showed an IC50 above 2000 µM.

In the case of `COC(=O)c1c(-c2ccc(NC(=O)c3cc(OC)c(OC)c(OC)c3)cc2)oc2ccccc2c1=O`, the IC50 was above 2000 µM.

In turn, `COC(=O)c1c(-c2ccc(OC)c(OC)c2)oc2ccccc2c1=O` [methyl 2-(3,4-dimethoxyphenyl)-4-oxo-4H-chromene-3-carboxylate] registered an IC50 above 2000 µM.

Regarding `COc1cc(OC)cc(-c2oc3ccccc3c(=O)c2C(=O)O)c1`, the IC50 was above 2000 µM.

As to `O=C(O)c1c(-c2ccc(O)cc2)oc2ccccc2c1=O`, 1600 µM corresponded to half-maximal inhibition (IC50).

For `COc1cc(-c2oc3ccccc3c(=O)c2C(=O)O)cc(OC)c1OC`, the IC50 is above 2000 µM.

In turn, `COc1ccc(-c2oc3ccccc3c(=O)c2C(=O)O)cc1OC` [2-(3,4-Dimethoxy-phenyl)-4-oxo-4H-chromene-3-carboxylic acid] had an IC50 above 2000 µM.

In turn, `O=c1cc(-c2ccc([N+](=O)[O-])cc2)oc2ccc(O)cc12` gave an IC50 above 2000 µM.

`COC(=O)c1c(-c2ccc(OCc3ccccc3)cc2)oc2ccc(OC)cc2c1=O` [2-(4-Benzyloxy-phenyl)-6-methoxy-4-oxo-4H-chromene-3-carboxylic acid methyl ester] had an IC50 above 2000 µM.

In turn, `COC(=O)c1c(-c2ccc([N+](=O)[O-])cc2)oc2cc(OC)ccc2c1=O` [methyl 7-methoxy-2-(4-nitrophenyl)-4-oxo-4H-chromene-3-carboxylate] had an IC50 above 2000 µM.

In the case of `O=C(O)c1c(-c2ccc([N+](=O)[O-])cc2)oc2ccccc2c1=O` [2-(4-nitrophenyl)-4-oxo-4H-chromene-3-carboxylic acid], the IC50 was above 2000 µM.

`COC(=O)c1c(-c2ccc(OCc3ccccc3)cc2)oc2ccccc2c1=O` displayed an IC50 above 2000 µM.

In turn, `COC(=O)c1c(-c2ccc(Br)cc2)oc2ccccc2c1=O` showed an IC50 above 2000 µM.

Regarding `COC(=O)c1c(-c2ccc(O)cc2)oc2cc(OC)ccc2c1=O`, the IC50 is above 2000 µM.

Consider `COC(=O)c1c(-c2ccc(N)cc2)oc2ccccc2c1=O`, for which inhibition was half-maximal at 810 µM (IC50).

In turn, `O=C(O)c1c(-c2ccc(Br)cc2)oc2ccccc2c1=O` came in with an IC50 above 2000 µM.

Compound `O=c1cc(-c2ccc([N+](=O)[O-])cc2)oc2cc(O)ccc12` registered an IC50 above 2000 µM.

Consider `COC(=O)c1c(-c2ccc([N+](=O)[O-])cc2)oc2cc(OCc3ccccc3)cc(OCc3ccccc3)c2c1=O`, for which the IC50 is above 2000 µM.

With `CCOC(=O)CC(=O)c1c(O)cc(OCc2ccccc2)cc1OCc1ccccc1`, the IC50 is above 2000 µM.

As for `COC(=O)CC(=O)c1ccc(OC)cc1O`, half-maximal inhibition (IC50) required 1160 µM.

Take `COc1ccc2oc(-c3ccc([N+](=O)[O-])cc3)c(C(=O)O)c(=O)c2c1`: the IC50 was above 2000 µM.

For the compound `COC(=O)c1c(-c2ccc(O)cc2)oc2ccccc2c1=O`, half-maximal inhibition (IC50) required 439 µM.

Compound `CCOC(=O)CC(=O)c1ccccc1O` registered an IC50 above 2000 µM.

As to `COC(=O)c1c(-c2ccc(OC)cc2)oc2ccccc2c1=O` [methyl 2-(4-methoxyphenyl)-4-oxo-4H-chromene-3-carboxylate], the IC50 was above 2000 µM.
